Literature values, collected in patent US12420242B1 (KING SAUD UNIVERSITY, priority 2025, dated 2025).
≈ marks a conversion by molar mass, not a printed value. Like-named read-outs stand apart in the source and are kept apart here.

Key:
[1] = not given; remark: listed apart in the source

Density (Table 1)	Density	SMILES	solubility in water [1]	solubility in water ([1]; Table 1)
1.05 g · cm^−3	1.05 g/mL	c1ccsc1 [thiophene]		
1.00 g · cm^−3	1.0 g/mL	O [water]		

SMILES	Density (Table 1)	Density	solubility in water [1]	solubility in water ([1]; Table 1)
CCCCCCC [n-heptane]	0.68 g · cm^−3		2 µg/mL (≈ 20 µM)	2 µg/mL (≈ 20 µM)
